≈ marks a conversion by molar mass, not a printed value.
How the values were obtained:
E. coli DNA gyrase = target: T1, E. coli DNA gyrase (Escherichia coli, UniProt P0AES6); test: biochemical; details: E. coli DNA gyrase; read-out: IC50
T1 construct: purchased Inspiralis
Description: Inhibitory activities for compounds of the present invention were determined on E. coli and S. aureus DNA gyrase and topoisomerase IV in an assay from Inspiralis on streptavidin-coated 96-well microtiter plates from Thermo scientific Pierce. […] After washing off the unbound oligonucleotide, the enzyme test was performed. […] Reaction solutions were incubated at 37° C. for 30 min. After that, the TF buffer (50 mM NaOAc with pH 5.0, 50 mM NaCl and 50 mM MgCl2) was added to terminate the enzymatic reaction. After additional incubation for 30 min at rt, during which biotin-oligonucleotide-plasmid triplex was formed, the unbound plasmid was washed off using TF buffer and SybrGOLD in T10 buffer (10 mM Tris HCl with pH 8.0 and 1 mM EDTA) was added. […] GraphPad Prism 6.0 software was used to calculate the IC50 values. The result is given as the average value of three independent measurements. […] Chemoth.

E. coli topoisomerase IV = target: T2, E. coli topoisomerase IV (Escherichia coli, UniProt P20083); test: biochemical; details: E. coli topo IV, read-out: RA (residual activity of the enzyme); for remaining activity at 1 µM: 1 μM compound; for remaining activity at 10 µM: 10 μM compound
T2 construct: purchased Inspiralis
Description: Inhibitory activities for compounds of the present invention were determined on E. coli and S. aureus DNA gyrase and topoisomerase IV in an assay from Inspiralis on streptavidin-coated 96-well microtiter plates from Thermo scientific Pierce. […] After washing off the unbound oligonucleotide, the enzyme test was performed. […] Reaction solutions were incubated at 37° C. for 30 min. After that, the TF buffer (50 mM NaOAc with pH 5.0, 50 mM NaCl and 50 mM MgCl2) was added to terminate the enzymatic reaction. After additional incubation for 30 min at rt, during which biotin-oligonucleotide-plasmid triplex was formed, the unbound plasmid was washed off using TF buffer and SybrGOLD in T10 buffer (10 mM Tris HCl with pH 8.0 and 1 mM EDTA) was added. […] Initial screening was done at 100 or 10 nM concentration of inhibitors against E. coli DNA gyrase or 1 μM or 100 nM concentration against S. aureus DNA gyrase and E. coli and S. aureus topo IV. […] GraphPad Prism 6.0 software was used to calculate the IC50 values. The result is given as the average value of three independent measurements. […] Chemoth.

S. aureus ATCC 29213 = test: Microbroth dilution MIC (CLSI); assay type: cell-based; details: Staphylococcus aureus, ATCC29213; S. aureus ATCC 29213; read-out: MIC
Description: (§1) The chemical entities described in the present invention were assessed for their antimicrobial activity using a microbroth dilution assay as recommended by the CLSI (Methods for Dilution Antimicrobial Susceptibility Tests for Bacteria That Grow Aerobically, and Methods for Antimicrobial Susceptibility Testing of Anaerobic Bacteria, Clinical and Laboratory Standards Institute, Document M07-A8, and M11-A8, Wayne, PA 19087, USA, 2012.). Compounds were dissolved by using 100% DMSO. Serial two-fold dilutions of each compound were made by using 100% DMSO as the diluent.
(§2) A library of Gram-negative and Gram-positive microbes and their drug- and multidrug-resistant variants were employed as test organisms. The MIC (minimum inhibitory concentration) was determined as the lowest concentration of an individual drug that lead to no visible growth.

[1] = system: S. aureus ATCC 43300 (MRSA); test: Microbroth dilution MIC (CLSI); assay type: cell-based; details: Staphylococcus aureus; S. aureus ATCC 43300 (MRSA); read-out: MIC
Description: as §1, §2

K. pneumoniae ATCC 10031 = test: Microbroth dilution MIC (CLSI); assay type: cell-based; details: Klebsiella pneumoniae, ATCC10031; K. pneumoniae ATCC 10031; read-out: MIC
Description: as §1, §2

A. baumannii ATCC 17978 = test: Microbroth dilution MIC (CLSI); assay type: cell-based; details: Acinetobacter baumannii, ATCC17978; A. baumannii ATCC 17978; read-out: MIC
Description: as §1, §2

[2] = system: E. spp. cloacae ATCC 13047; test: Microbroth dilution MIC (CLSI); assay type: cell-based; details: Enterobacter cloacae, ATCC13047; E. spp. cloacae ATCC 13047; read-out: MIC
Description: as §1, §2

E. faecalis ATCC 29212 = test: Microbroth dilution MIC (CLSI); assay type: cell-based; details: Enterococcus faecalis, ATCC29212; E. faecalis ATCC 29212; read-out: MIC
Description: as §1, §2

E. coli ATCC 25922 = test: Microbroth dilution MIC (CLSI); assay type: cell-based; details: Escherichia coli, ATCC25922; E. coli ATCC 25922; read-out: MIC
Description: as §1, §2

P. aeruginosa ATCC 27853 = test: Microbroth dilution MIC (CLSI); assay type: cell-based; details: Pseudomonas aeruginosa, ATCC27853; P. aeruginosa ATCC 27853; read-out: MIC
Description: as §1, §2

T2 sequence (P0AFI2 whole entry): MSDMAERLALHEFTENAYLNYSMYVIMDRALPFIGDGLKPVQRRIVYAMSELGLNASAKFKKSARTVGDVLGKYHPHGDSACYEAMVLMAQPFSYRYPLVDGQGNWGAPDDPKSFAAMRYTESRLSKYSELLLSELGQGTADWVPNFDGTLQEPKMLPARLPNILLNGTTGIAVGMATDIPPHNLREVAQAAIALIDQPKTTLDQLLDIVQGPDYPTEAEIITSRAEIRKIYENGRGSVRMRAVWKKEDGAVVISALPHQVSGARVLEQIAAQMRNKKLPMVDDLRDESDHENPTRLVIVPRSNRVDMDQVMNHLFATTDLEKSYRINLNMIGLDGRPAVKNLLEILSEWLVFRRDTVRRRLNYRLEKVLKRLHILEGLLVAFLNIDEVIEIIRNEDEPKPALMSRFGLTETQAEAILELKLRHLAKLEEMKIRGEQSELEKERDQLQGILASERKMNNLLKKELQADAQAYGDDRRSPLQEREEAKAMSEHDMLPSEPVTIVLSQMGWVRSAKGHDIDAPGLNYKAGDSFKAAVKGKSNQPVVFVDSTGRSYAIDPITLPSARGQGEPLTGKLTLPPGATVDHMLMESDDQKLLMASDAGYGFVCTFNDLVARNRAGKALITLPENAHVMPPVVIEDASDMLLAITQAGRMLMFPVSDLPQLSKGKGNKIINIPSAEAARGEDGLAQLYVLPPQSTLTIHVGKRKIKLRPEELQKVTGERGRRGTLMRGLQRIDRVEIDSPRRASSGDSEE
T2 sequence (P20083 whole entry): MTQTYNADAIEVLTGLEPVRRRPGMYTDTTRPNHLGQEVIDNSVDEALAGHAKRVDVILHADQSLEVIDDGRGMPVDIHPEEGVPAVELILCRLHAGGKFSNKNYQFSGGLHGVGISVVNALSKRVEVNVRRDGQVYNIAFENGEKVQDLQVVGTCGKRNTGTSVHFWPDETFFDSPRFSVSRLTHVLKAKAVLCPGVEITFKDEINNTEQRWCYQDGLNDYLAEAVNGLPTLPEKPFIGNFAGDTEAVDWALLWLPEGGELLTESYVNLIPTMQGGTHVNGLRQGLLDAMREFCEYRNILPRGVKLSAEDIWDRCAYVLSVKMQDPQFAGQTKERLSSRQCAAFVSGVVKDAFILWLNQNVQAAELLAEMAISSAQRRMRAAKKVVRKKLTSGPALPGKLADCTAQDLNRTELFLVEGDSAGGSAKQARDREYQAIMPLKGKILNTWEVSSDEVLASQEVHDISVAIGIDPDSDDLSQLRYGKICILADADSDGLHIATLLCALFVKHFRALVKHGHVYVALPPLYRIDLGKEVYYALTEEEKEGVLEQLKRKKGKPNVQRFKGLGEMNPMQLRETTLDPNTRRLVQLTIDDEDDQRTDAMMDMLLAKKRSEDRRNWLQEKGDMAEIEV

SMILES | IC50 (E. coli DNA gyrase) [µM] | remaining activity at 1 µM (E. coli topoisomerase IV) [%] | remaining activity at 10 µM (E. coli topoisomerase IV) [%] | MIC (S. aureus ATCC 29213) [mg/L] | MIC [1] [mg/L] | MIC (K. pneumoniae ATCC 10031) [mg/L] | MIC (A. baumannii ATCC 17978) [mg/L] | MIC [2] [mg/L] | MIC (E. faecalis ATCC 29212) [mg/L] | MIC (E. coli ATCC 25922) [mg/L] | MIC (P. aeruginosa ATCC 27853) [mg/L]
Cc1[nH]c(C(=O)Nc2ccc(-c3n[nH]c(=O)o3)cc2OCc2ccncc2)c(Cl)c1Cl [Example 30, 3,4-Dichloro-5-methyl-N-(4-(5-oxo-4,5-dihydro-1,3,4-oxadiazol-2-yl)-2-(pyridin-4-ylmethoxy)phenyl)-1H-pyrrole-2-carboxamide] | 0.0422 |  |  |  |  |  |  |  |  |  | 
Cc1[nH]c(C(=O)Nc2ccc(-c3n[nH]c(=O)o3)cc2OCc2cccs2)c(Cl)c1Cl [Example 33, 3,4-Dichloro-5-methyl-N-(4-(5-oxo-4,5-dihydro-1,3,4-oxadiazol-2-yl)-2-(thiophen-2-ylmethoxy)phenyl)-1H-pyrrole-2-carboxamide] | 3.74 |  |  |  |  |  |  |  |  |  | 
Cc1[nH]c(C(=O)Nc2ccc(-c3n[nH]c(=O)o3)cc2N2CCNCC2)c(Cl)c1Cl.Cl [Example 41, 4-(2-(3,4-Dichloro-5-methyl-1H-pyrrole-2-carboxamido)-5-(5-oxo-4,5-dihydro-1,3,4-oxadiazol-2-yl)phenyl)piperazin-1-ium chloride] | 0.0179 | 71 | 48 | 2 | 4 | 0.25 | ≥ 64 | ≥ 64 | 0.5 | ≥ 64 | ≥ 64
Cc1[nH]c(C(=O)Nc2ccc(-c3n[nH]c(=O)o3)cc2N2CCOCC2)c(Cl)c1Cl [Example 42, 3,4-Dichloro-5-methyl-N-(2-morpholino-4-(5-oxo-4,5-dihydro-1,3,4-oxadiazol-2-yl)phenyl)-1H-pyrrole-2-carboxamide] | 0.0822 | 66 | 54 | 0.25 (≈ 0.57 µM) | 0.25 (≈ 0.57 µM) | ≥ 64 | ≥ 64 | ≥ 64 | 0.125 (≈ 0.285 µM) | ≥ 64 | ≥ 64
Cc1[nH]c(C(=O)Nc2ccc(-c3n[nH]c(=O)o3)cc2N2CCOC(C)C2)c(Cl)c1Cl (stereo not drawn) [Example 43, 3,4-Dichloro-5-methyl-N-(2-(2-methylmorpholino)-4-(5-oxo-4,5-dihydro-1,3,4-oxadiazol-2-yl)phenyl)-1H-pyrrole-2-carboxamide] | 0.0535 | 103 | 102 | ≥ 64 | ≥ 64 | ≥ 64 | ≥ 64 | ≥ 64 | 1 (≈ 2.21 µM) | ≥ 64 | ≥ 64
Cc1[nH]c(C(=O)Nc2ccc(-c3n[nH]c(=O)o3)cc2N2CC(C)OC(C)C2)c(Cl)c1Cl (stereo not drawn) [Example 44, 3,4-dichloro-N-(2-(2,6-dimethylmorpholino)-4-(5-oxo-4,5-dihydro-1,3,4-oxadiazol-2-yl)phenyl)-5-methyl-1H-pyrrole-2-carboxamide] | 0.109 | 105 | 105 |  |  |  |  |  |  |  | 
Cc1[nH]c(C(=O)Nc2ccc(C(=O)NS(C)(=O)=O)cc2N2CCOCC2)c(Cl)c1Cl [Example 45, 3,4-Dichloro-5-methyl-N-(4-((methylsulfonyl)carbamoyl)-2-morpholinophenyl)-1H-pyrrole-2-carboxamide] | 0.243 |  |  |  |  |  |  |  |  |  | 

From patent US20250002455A1, “NEW N-PHENYLPYRROLAMIDE INHIBITORS OF DNA GYRASE AND TOPOISOMERASE IV WITH ANTIBACTERIAL ACTIVITY” (priority 2020, published 2025)
